# Assay results published in patent publication EP4810052A2, “HCRHR2 SELECTIVE POLYPEPTIDES” (Gubra A/S, priority 2023, dated 2026).
# Starred links: 1 amine or outer side, 2 acyl side, 3 side chain; linkers in the order of their positions; H or OH if unused. Residues, ends and D or L forms follow the SMILES beside them. Groups on a side chain read outwards from the residue. *: point of attachment. C20 diacid = O=C(O)CCCCCCCCCCCCCCCCCCC(=O)*; γGlu = O=C(O)[C@H](CCC(=O)[*:2])N[*:1]; AEEA = NCCOCCOCC(=O)O
# Tests used:
# [1] = Myocardial ischemia (LAD ligation) model in rats; format: in vivo; conditions: MI rats; for Heart rate / Mean blood pressure: anesthetized, prior to termination
# From the text: Wistar male rats were obtained from JanVier (Janvier Labs, France) at 6 weeks of age. The animals were pair-housed. During the study, animals had free access to food (RM1, SDS Dietex) and drinking water ad libitum.
# Myocardial infarction (MI) was induced by chronic left anterior descending coronary artery (LAD) ligation performed at day zero. Sham operated animals were subjected to the same protocol; after the left lateral thoracotomy exposing the heart, the rib cage was closed without passing the suture thread around LAD.
# Treatments started at 1-month post-MI, in order to assess the potential beneficial effect of the candidate compound to prevent the progression of the pathology.
# Rats underwent transthoracic echocardiographic (ECG) examination in order to assess cardiac morphology and function in a noninvasively way. Echocardiography was performed by using a digital ultrasound system (Vivid S60, GE Medical Systems) equipped with a 12 MHz phased-array and an 18 MHz linear-array transducer. Standard B-mode (Brightness-mode) and M-mode (Motion-mode) images of the heart were obtained in the two-dimensional (2D) parasternal long axis view (PSLA). LV parameters were measured and calculated as the mean of 3 consecutive cardiac cycles by a single blinded trained operator.
# A total of four ECG exams were performed for all the animals. The first examination took place 5-7 days after surgery and was used as a control of the surgery. The second ECG was performed 1 month after LAD ligation. Based on the second ECG, MI rats included were randomized in […] homogeneous groups based on the left ventricular internal diameter in diastole (LVIDd), telediastolic (TeleD) volume, ejection fraction (EF) and fractional shortening (FS): Group 1 (Sham): n=10, group 2 (MI/Vehicle): n=19, group 3 (MI/Atenolol-Lisinopril-Spironolactone (A+L+S) 1-1-10 mg/kg): n=19, group 4 (MI/test peptide 30 nmol/kg): n=19 and group 5 (MI/test peptide 100 nmol/kg): n=19. Vehicle and test peptide were administrated daily SC and A+L+S were dosed through drinking water. The third and fourth ECG were done 2 and 3 months after surgery, and were used to assess the cardiac remodelling and function following MI. At the fourth ECG isovolumic relaxation time (IVRT) and cardiac output (CO) were also assessed by Doppler-echocardiography.
# Prior to termination, hemodynamic measurements were performed under anaesthesia using a fluid-filled catheter (BLPR and TBM4m, World Precision Instrument). At termination, left soleus was dissected and weighed.
# Statistical analyses were performed with the Graphpad 9 software. If values were normally distributed, a parametric analysis was performed. If samples were drawn from non-normal populations, a non-parametric analysis was performed. First, differences were assessed between Sham and MI/Vehicle using a t-test. Then, the treated MI groups were compared to MI/Vehicle using a one-way ANOVA followed by the appropriate post-hoc test.
# [2] = Subchronic unilateral ischemia-reperfusion injury (uIRI) in mice; format: in vivo; conditions: for BW at termination / Kidney weight at termination: ± SEM
# From the text: Male C57BL/6jRj mice were obtained from JanVier (JanVier Labs, France) at 10 weeks of age. The animals were single-housed in Individually Ventilated Cages (IVC from Tecniplast, Typ I SL cage) with free access to water, food and encrichments. Animals were allowed to acclimatize for 7 days prior to study start. After acclimatization, animals were randomized into groups based on body weight; 1) Sham, 2) uIRI - Vehicle, 3) uIRI -SEQ ID NO: 3, 30 nmol/kg and 4) uIRI -SEQ ID NO: 3, 100 nmol/kg.
# On study day 0, unilateral ischemia-reperfusion injury (uIRI, 25 min of occlusion followed by reperfusion) was performed on study group 2 - 4 (followed by uninephrectomy (UNx) on study day 6. Animals were subcutaneously dosed once daily starting prior to IRI surgery and until study day 7, where animals were terminated. Here plasma was collected, and the remaining kidney weighed and sampled for histological analysis. Kidneys were stained, analyzed and quantified using the following markers: collagen type-1 (col1a1), F4/80 and KIM-1.
# [3] = 2 months of treatment, 30 nmol/kg, ± SEM
# [4] = 2 months of treatment, 100 nmol/kg, ± SEM
# [5] = 2 months of treatment, compared to MI/Vehicle
# [6] = 100 nmol/kg, compared to uIRI vehicle
smiles,measurement,setting,value
CC[C@H](C)[C@H](N)C(=O)N[C@H](C(=O)N[C@@H](CC(C)C)C(=O)N[C@@H](CO)C(=O)N[C@@H](CC(C)C)C(=O)N[C@@H](CC(=O)O)C(=O)N[C@H](C(=O)N1CCC[C@H]1C(=O)N[C@H](C(=O)NCC(=O)N[C@@H](CC(C)C)C(=O)N[C@@H](CC(C)C)C(=O)N[C@@H](CCC(N)=O)C(=O)N[C@H](C(=O)N[C@@H](CC(C)C)C(=O)N[C@@H](CC(C)C)C(=O)N[C@@H](CCC(=O)O)C(=O)N[C@@H](CCC(N)=O)C(=O)N[C@@H](C)C(=O)N[C@@H](CCCNC(=N)N)C(=O)N[C@@H](C)C(=O)N[C@@H](CCCNC(=N)N)C(=O)N[C@@H](C)C(=O)N[C@@H](C)C(=O)N[C@@H](CCCNC(=N)N)C(=O)N[C@@H](CCC(=O)O)C(=O)N[C@@H](CCC(N)=O)C(=O)N[C@@H](C)C(=O)N[C@@H](CCCCNC(=O)COCCOCCNC(=O)COCCOCCNC(=O)CC[C@H](NC(=O)CC[C@H](NC(=O)CCCCCCCCCCCCCCCCCCC(=O)O)C(=O)O)C(=O)O)C(=O)N[C@H](C(=O)N[C@@H](CC(N)=O)C(=O)N[C@@H](C)C(=O)N[C@@H](CCC(=O)O)C(=O)N[C@H](C(=O)N[C@@H](CC(C)C)C(=O)N[C@@H](C)C(=O)N[C@@H](CCC(=O)O)C(=O)N[C@H](C(N)=O)C(C)C)[C@@H](C)CC)[C@@H](C)O)[C@@H](C)CC)[C@@H](C)CC)C(C)C)C(C)C [SEQ ID NO: 3] (H-IVLSLDVPIGLLQILLEQARARAAREQAK([AEEA-AEEA-γGlu-γGlu-C20 diacid])TNAEILAEV-NH2),Body weight at termination,"[1]; 30 nmol/kg, ± SEM",550.1 ± 10.6 g
same,Left soleus mass,"[1]; 30 nmol/kg, ± SEM",274.9 ± 9.9 mg
same,Body weight at termination,"[1]; 100 nmol/kg, ± SEM",551.6 ± 6.7 g
same,Left soleus mass,"[1]; 100 nmol/kg, ± SEM",275.2 ± 6.8 mg
same,CO,[1]; [3],129.0 ± 5.1 mL/min
same,EF B-mode,[1]; [3],45.52 ± 1.2 %
same,EF M-mode,[1]; [3],46.42 ± 1.2 %
same,FS,[1]; [3],20.63 ± 0.5 %
same,IVRT,[1]; [3],21.81 ± 0.5 ms
same,LVIDd,[1]; [3],10.86 ± 0.2 mm
same,LVIDs,[1]; [3],8.63 ± 0.2 mm
same,LVPWd,[1]; [3],1.84 ± 0.04 mm
same,LVPWs,[1]; [3],2.94 ± 0.05 mm
same,SV,[1]; [3],0.41 ± 0.01 mL
same,CO,[1]; [4],125.4 ± 3.8 mL/min
same,EF B-mode,[1]; [4],45.55 ± 0.7 %
same,EF M-mode,[1]; [4],46.22 ± 0.7 %
same,FS,[1]; [4],20.46 ± 0.4 %
same,IVRT,[1]; [4],20.87 ± 0.3 ms
same,LVIDd,[1]; [4],10.94 ± 0.1 mm
same,LVIDs,[1]; [4],8.71 ± 0.1 mm
same,LVPWd,[1]; [4],1.63 ± 0.1 mm
same,LVPWs,[1]; [4],2.73 ± 0.05 mm
same,SV,[1]; [4],0.40 ± 0.02 mL
same,cardiac output,[1]; [5],significant improvements
same,ejection fraction,[1]; [5],significant improvements
same,fractional shortening,[1]; [5],significant improvements
same,stroke volume,[1]; [5],significant improvements
same,Heart rate,[1]; 30 nmol/kg,348.8 ± 6.7 bpm
same,Mean blood pressure,[1]; 30 nmol/kg,109.9 ± 4.0 mmHg
same,Heart rate,[1]; 100 nmol/kg,353.2 ± 9.1 bpm
same,Mean blood pressure,[1]; 100 nmol/kg,112.6 ± 4.3 mmHg
same,muscle mass,[1]; at termination,significant increase
same,Body weight at termination,[1]; compared to MI-Vehicle,weighed significantly more
same,"Renal fibrosis, Col1a1",[2]; 30 nmol/kg,34.3 ± 2.3 fractional area %
same,"Renal inflammation, F4/80",[2]; 30 nmol/kg,7.3 ± 0.6 fractional area %
same,"Renal injury, KIM-1",[2]; 30 nmol/kg,7.48 ± 0.49 fractional area %
same,Serum creatinine,[2]; 30 nmol/kg,1.83 ± 0.004 mg/dL
same,Serum urea,[2]; 30 nmol/kg,463.0 ± 10.5 mg/dL
same,BW at termination,[2]; 30 nmol/kg,24.4 ± 0.5 g
same,Kidney weight at termination,[2]; 30 nmol/kg,0.16 ± 0.005 g
same,"Renal fibrosis, Col1a1",[2]; 100 nmol/kg,26.4 ± 1.4 fractional area %
same,"Renal inflammation, F4/80",[2]; 100 nmol/kg,2.5 ± 0.6 fractional area %
same,"Renal injury, KIM-1",[2]; 100 nmol/kg,6.00 ± 0.50 fractional area %
same,Serum creatinine,[2]; 100 nmol/kg,1.17 ± 0.13 mg/dL
same,Serum urea,[2]; 100 nmol/kg,433 ± 22.5 mg/dL
same,kidney fibrosis,[2]; [6],reduced
same,kidney inflammation,[2]; [6],reduced
same,serum levels of creatinine,[2]; [6],reduced
same,BW at termination,[2]; 100 nmol/kg,21.8 ± 0.4 g
same,Kidney weight at termination,[2]; 100 nmol/kg,0.16 ± 0.006 g
